According to patent US20060058379A1, “Connexin 26 inhibitor and cancer metastasis inhibitors” (priority 2002, published 2006):
Entries after “also recorded” stand apart in the source; their conditions may differ.

How the values were obtained:
connexin 43 = biological target: T1, connexin 43 (Rattus norvegicus, UniProt P08050); assay: Dye-transfer assay (GJIC) in HeLa-Cx43 cells; assay type: cell-based; settings: HeLa-Cx43, calcein/DiI dye transfer, FIG. 1
T1 construct: contained a cDNA fragment of an entire coding region of rat Cx43; expressed in transfected cells; host or cells: HeLa cells stably transfected with pCX4bsr-Cx43 (clone HeLa-Cx43)
Description: A pCX4bsr vector was derived from the pCXbsr vector (T Akagi., et al., 2000, Proc. Natl. Acad. Sci. USA) with minor modification. The pCX4bsr vector was kindly given by Dr. T Akagi (Osaka Bioscience Institute, Osaka, Japan). The pBluescriptII SK+plasmid vector contained a cDNA fragment of an entire coding region of rat Cx43 between the Spel and ClaI sites, and was constructed previously (Y. Omori., et al., 1998, Int. J. Cancer). The Cx43cDNA was excised by digesting NotI and HincII, and being ligated with the pCX4bsr where NotI and HincII were digested. HeLa cells were transfected with the resulting pCX4bsr-Cx43 vector by using the TransFast transfection regent. […]
(§1) Cells containing the gap junction-impermeable DiI (red fluorescence) were identified as donor cells. […]
The level of gap junction cell-to-cell communication (GJIC) was scored by the following methods.
Donor cells were scored as 0 for no dye-coupling, as 1 for dye-coupling from a donor cell to an adjacent recipient cell, and as 2 or 3 when calcein transferred to the adjacent recipient cell further transfers to a second or a third adjacent cell, subsequently, in a direction away from the donor cell. […] The experiments were repeated three times and mean and standard deviation of score counts were calculated for each factor. […]

[1] = system: BL6 cells (substrains of B16 mouse melanoma cells); assay: Cancer metastasis inhibitory action test 2: spontaneous lung metastasis after subcutaneous BL6 inoculation; assay type: in vivo; settings: C57B1/6 mice, counted four weeks after dismembering
Description: After subcutaneously inoculating 1×10^5 BL6 cells (substrains of B16 mouse melanoma cells) to a planter of each C57B1/6 mouse, the mice were classified into three groups. • 1) Control mice (Nt) with no treatment but transplanting […]; • 2) Oleamide (25 mg/kg/day) administration group: peritoneal injection of olive oil 0.2 ml dissolved with oleamide at concentration of 25 mg/kg/day once a day on consecutive days; and • 3) MI-18 (10 mg/kg/day) administration group: olive oil 0.2 ml dissolved with MI-18 at concentration of 10 mg/kg/day once a day on consecutive days.
The mice were treated in the above manners every day after the BL6 cells inoculation. Then, on about 18th day, tumors (about eight mm radical) formed at the injected points were removed by dismembering at knee joints. Then the mice were treated in the above manners for another two days after the dismembering. After that, mice were fed without the treatments. At four weeks after dismembering at the knee joints, the mice were euthanized, and metastasized tubercles in both left and right lungs (the number of focuses) were counted visually (refer to FIG. 2 (a) through (c) and FIG. 3). Cancer metastasis inhibitory action was evaluated using 15 mice for each group. […] Therefore, these materials are highly safe. […]

[2] = Death of mice due to causes other than cancer under daily administration (Example 5); assay type: in vivo, mouse; settings: C57B1/6 mice, approximately two months, FIG. 5
connexin 26 = biological target: T2, connexin 26 (Rattus norvegicus, UniProt P21994); assay: Dye-transfer assay (GJIC) in HeLa-Cx26 cells; assay type: cell-based; settings: HeLa-Cx26, calcein/DiI dye transfer, FIG. 1
T2 construct: expressed in transfected cells; host or cells: HeLa (human cervical carcinoma) subclone HeLa-Cx26
Description: The connexin 26 inhibitory activity can be evaluated with dye-transfer assay, for example. Specifically, a gap junction level (GJIC score) against the connexin 26 is used for evaluation (c.f. Japanese Laid-Open Patent Publication No. 17184/2001, “Tokukai 2001-17184, publication date: Jan. 23, 2001, and M. Mensil et al. Cancer Res. Vol 55, 629-639 1995.).
With this method, labelling dye, which can be transferred to outside of cells only through the gap junctions, is introduced into cells. Then the cells are smeared on a monolayer culture or a tissue culture. […]
GJIC score can be calculated as described in following examples. That is, if no dye-coupling occurs with respect to the donor cells, “0” is scored; “1” is scored if dye-coupling from the donor cell to an adjacent receptive cell occurs; and “2” is scored if dye-coupling from the donor cell to a second adjacent cell occurs. In this manner, when dye-coupling to n^th adjacent cell from the donor cell occurs, “n” (an integer) is scored. […]
as §1
The level of gap junction cell-to-cell communication (GJIC) was scored by the following methods. […]

[3] = system: BL6 cells (substrains of B16 mouse melanoma cells); assay: Cancer metastasis inhibitory action test 1: spontaneous lung metastasis after subcutaneous BL6 inoculation; assay type: in vivo; settings: C57B1/6 mice; for metastasized tubercles in lungs (number of foci) vs vehicle group: counted four weeks after dismembering
Description: The mice were treated in the above manners on consecutive days after the BL6 cells inoculation. Then, on about 18th day, tumors (about six mm in diameter) formed at inoculation points were removed by dismembering at knee joints. Then the mice were treated in the above manners for another two days after the dismembering. After that, the mice were fed without the treatments. At four weeks after the dismembering at the knee joints, the mice were euthanized, and metastasized tubercles in both left and right lungs (the number of focuses) were counted visually (refer to FIG. 2 (a) through (c) and FIG. 3). Cancer metastasis inhibitory action was evaluated using 10 mice for each group.

T1 sequence (P08050 2-382): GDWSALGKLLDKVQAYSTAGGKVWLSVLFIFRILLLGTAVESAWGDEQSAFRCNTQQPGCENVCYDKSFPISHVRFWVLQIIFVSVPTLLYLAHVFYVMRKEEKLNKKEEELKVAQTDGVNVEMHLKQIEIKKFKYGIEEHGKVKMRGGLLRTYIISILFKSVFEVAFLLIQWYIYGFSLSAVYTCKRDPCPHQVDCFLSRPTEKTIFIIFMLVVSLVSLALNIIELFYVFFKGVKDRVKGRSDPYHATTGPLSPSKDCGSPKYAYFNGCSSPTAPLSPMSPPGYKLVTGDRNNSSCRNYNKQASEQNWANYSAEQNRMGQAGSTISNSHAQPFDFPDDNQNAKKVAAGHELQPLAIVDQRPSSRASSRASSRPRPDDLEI

Row | Compound | inhibitory activity against connexin 43 (gap junction dye-coupling) (connexin 43) | metastasized tubercles in lungs (number of foci) vs untreated group ([1]; 10 mg/kg/day once a day) | death of mice due to causes other than cancer ([2]; 10 mg/kg/day every day) | inhibitory activity against connexin 26 (gap junction dye-coupling) (connexin 26) | metastasized tubercles in lungs (number of foci) vs vehicle group ([3]; 25 mg/kg/day peritoneal injection twice a day) | metastasized tubercles in lungs (number of foci) vs vehicle group ([3]; 50 mg/kg/day twice a day) | metastasized tubercles in lungs (number of foci) ([3]; 500 mg/kg/day, FIG. 2 (d)) | metastasized tubercles in lungs (number of foci) vs untreated group ([1]; 25 mg/kg/day peritoneal injection once a day) | death of mice due to causes other than cancer ([2]; 25 mg/kg/day every day, 25 mg/kg/day)
1 | CCCCCCCC[C@H]1O[C@H]1CCCCCCCC(N)=O (relative stereo) [MI-18, 8-[(2S*3R*)-3-octyloxirane-2-yl]octanamide] | specifically inhibits only connexin 26 | fewer metastasized tubercles and significantly exhibited cancer metastasis inhibitory activity | no mice died due to other causes but cancer | exhibits inhibitory activity | – | – | – | – | –
2 | CCCCCCCC/C=C\CCCCCCCC(N)=O [oleamide, 9(Z)-Octadecenamide] | exhibited inhibitory action | – | – | exhibited inhibitory action; also recorded: exhibits inhibitory activity | fewer metastasized tubercles and significantly exhibited cancer metastasis inhibitory action | fewer metastasized tubercles and significantly exhibited cancer metastasis inhibitory action | the similar result was obtained | fewer metastasized tubercles and significantly exhibited cancer metastasis inhibitory activity | death rates due to causes other than cancer were low; also recorded: no mice died due to other causes but cancer
